Molecular target: T1, rabbit ALOX15 (Oryctolagus cuniculus, UniProt P12530)
T1 sequence (P12530 1-663): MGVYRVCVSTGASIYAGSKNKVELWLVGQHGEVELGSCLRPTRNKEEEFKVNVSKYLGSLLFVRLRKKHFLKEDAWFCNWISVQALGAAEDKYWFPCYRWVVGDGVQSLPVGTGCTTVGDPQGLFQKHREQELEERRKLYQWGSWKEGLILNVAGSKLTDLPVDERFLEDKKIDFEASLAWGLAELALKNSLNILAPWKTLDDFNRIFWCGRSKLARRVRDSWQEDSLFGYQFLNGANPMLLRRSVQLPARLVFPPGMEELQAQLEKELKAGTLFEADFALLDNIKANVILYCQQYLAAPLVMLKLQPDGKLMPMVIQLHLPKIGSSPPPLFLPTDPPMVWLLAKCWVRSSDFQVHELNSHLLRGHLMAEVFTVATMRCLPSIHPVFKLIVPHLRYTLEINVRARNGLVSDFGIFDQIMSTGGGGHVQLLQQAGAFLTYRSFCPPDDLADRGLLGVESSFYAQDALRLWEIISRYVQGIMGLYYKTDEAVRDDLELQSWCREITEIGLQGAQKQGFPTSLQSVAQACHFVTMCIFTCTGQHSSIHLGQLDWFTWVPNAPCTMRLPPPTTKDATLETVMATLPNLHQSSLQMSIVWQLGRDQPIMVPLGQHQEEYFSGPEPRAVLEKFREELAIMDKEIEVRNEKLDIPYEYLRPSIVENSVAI
Assay: Kinetic measurements of LA/AA oxygenation with inhibitor
Assay type: biochemical
Details: best fit of kinetic data

Question: `CCCCCCCCOC(=O)NS(=O)(=O)Nc1ccc(-c2cc3ccccc3[nH]2)cc1OC` [compound 3, Octyl (N-(4-(1H-indol-2-yl)-2-methoxyphenyl)sulfamoyl)-carbamate] was tested. Which “mode of inhibition of AA oxygenation” value (AA as substrate) did it give?
Answer: Its value is “uncompetitive mode of inhibition”.

Question: What about the “mode of inhibition of LA oxygenation” value (LA as substrate) of the same compound?
Answer: Its value is “uncompetitive mode of inhibition”.
